Measured values reported in ChEMBL document CHEMBL1201862, “PubChem BioAssay data set” (2004).
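A five-concentration, 48-hour dose response in 96-well plates underlies each endpoint, interpolated linearly between surrounding concentrations. Abbreviation: GI50, concentration required for 50% inhibition of growth.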 Active and inactive are the calls of the source. No stated cut-off is given here; in the data, active = GI50 up to about 1.1 µM and inactive = higher.

Experiments:
Test in all cases: NCI tumour cell line growth inhibition, 48 h
HOP-92 = system: HOP-92
CAKI-1 = system: CAKI-1
IGROV-1 = system: IGROV-1
U-251 = system: U-251
TK-10 = system: TK-10
SK-OV-3 = system: SK-OV-3
Malme-3M = system: Malme-3M
MCF7 = system: MCF7
OVCAR-8 = system: OVCAR-8
HL-60 = system: HL-60
A549 = system: A549
T47D = system: T47D
NCI-H23 = system: NCI-H23
RXF 393 = system: RXF 393
PC-3 = system: PC-3
LOX IMVI = system: LOX IMVI
MDA-MB-435 = system: MDA-MB-435
RPMI-8226 = system: RPMI-8226
MDA-N = system: MDA-N
HOP-62 = system: HOP-62
EKVX = system: EKVX
UACC-257 = system: UACC-257
SR = system: SR
NCI-H460 = system: NCI-H460
A498 = system: A498
K562 = system: K562
HT-29 = system: HT-29
ACHN = system: ACHN
SK-MEL-5 = system: SK-MEL-5
HCT-116 = system: HCT-116
SNB-19 = system: SNB-19
OVCAR-5 = system: OVCAR-5
NCI/ADR-RES = system: NCI/ADR-RES
SW-620 = system: SW-620
SK-MEL-2 = system: SK-MEL-2
786-0 = system: 786-0
SN12C = system: SN12C
MOLT-4 = system: MOLT-4
NCI-H226 = system: NCI-H226
COLO 205 = system: COLO 205
DU-145 = system: DU-145
SNB-75 = system: SNB-75
NCI-H522 = system: NCI-H522
MDA-MB-231 = system: MDA-MB-231
SF-295 = system: SF-295
UO-31 = system: UO-31
SF-268 = system: SF-268
SK-MEL-28 = system: SK-MEL-28
KM12 = system: KM12
CCRF-CEM = system: CCRF-CEM
HCT-15 = system: HCT-15
BT-549 = system: BT-549
OVCAR-4 = system: OVCAR-4
SF-539 = system: SF-539
HCC 2998 = system: HCC 2998
UACC-62 = system: UACC-62
M14 = system: M14
Hs-578T = system: Hs-578T
OVCAR-3 = system: OVCAR-3
LXFL 529 = system: LXFL 529
DMS-273 = system: DMS-273
DLD-1 = system: DLD-1
KM-20L2 = system: KM-20L2
SNB-78 = system: SNB-78
M19-MEL = system: M19-MEL

`C(#CC1(Nc2ccccc2)CCN(Cc2ccccc2)CC1)C1(Nc2ccccc2)CCN(Cc2ccccc2)CC1` was tested, and the GI50 (HOP-92) was 4.95 µM (inactive), the GI50 (CAKI-1) was 24.3 µM (inactive) and the GI50 (IGROV-1) was 22.9 µM (inactive). For the same compound, the GI50 (U-251) was 19.9 µM (inactive), the GI50 (TK-10) was 13.2 µM (inactive) and the GI50 (SK-OV-3) was 5.01 µM (inactive). The GI50 (Malme-3M) was 3.17 µM (inactive), the GI50 (MCF7) was 31.5 µM (inactive) and the GI50 (OVCAR-8) was 21.6 µM (inactive). The GI50 (HL-60) was 1.56 µM (inactive), the GI50 (A549) was 23.6 µM (inactive) and the GI50 (T47D) was 9.31 µM (inactive). For the same compound, the GI50 (NCI-H23) was 37.8 µM (inactive), the GI50 (RXF 393) was 12.5 µM (inactive) and the GI50 (PC-3) was 15.1 µM (inactive). The GI50 (LOX IMVI) was 5.14 µM (inactive), the GI50 (MDA-MB-435) was 25.8 µM (inactive) and the GI50 (RPMI-8226) was 1.18 µM (inactive). The GI50 (MDA-N) was 14.5 µM (inactive), the GI50 (HOP-62) was 16.7 µM (inactive) and the GI50 (EKVX) was 40.6 µM (inactive). The GI50 (UACC-257) was 2.08 µM (inactive), the GI50 (SR) was 3.15 µM (inactive) and the GI50 (NCI-H460) was 16.3 µM (inactive). The GI50 (A498) was 30.1 µM (inactive), the GI50 (K562) was 1.62 µM (inactive) and the GI50 (HT-29) was 4.72 µM (inactive). The GI50 (ACHN) was 39.4 µM (inactive), the GI50 (SK-MEL-5) was 3.88 µM (inactive) and the GI50 (HCT-116) was 19.4 µM (inactive). For the same compound, the GI50 (SNB-19) was 23.8 µM (inactive), the GI50 (OVCAR-5) was 53.3 µM (inactive) and the GI50 (NCI/ADR-RES) was 34.7 µM (inactive). The GI50 (SW-620) was 11.2 µM (inactive), the GI50 (SK-MEL-2) was 10.5 µM (inactive) and the GI50 (786-0) was 17.3 µM (inactive). The GI50 (SN12C) was 24.2 µM (inactive), the GI50 (MOLT-4) was 4.17 µM (inactive) and the GI50 (NCI-H226) was 26.7 µM (inactive). The GI50 (COLO 205) was 1.31 µM (inactive), the GI50 (DU-145) was 46.9 µM (inactive) and the GI50 (SNB-75) was 10 µM (inactive). The GI50 (NCI-H522) was 24.8 µM (inactive), the GI50 (MDA-MB-231) was 16.3 µM (inactive) and the GI50 (SF-295) was 22.3 µM (inactive). For the same compound, the GI50 (UO-31) was 15.5 µM (inactive), the GI50 (SF-268) was 29.1 µM (inactive) and the GI50 (SK-MEL-28) was 4.8 µM (inactive). For the same compound, the GI50 (KM12) was 35.3 µM (inactive), the GI50 (CCRF-CEM) was 6.27 µM (inactive) and the GI50 (HCT-15) was 22.2 µM. The GI50 (BT-549) was 34.6 µM (inactive), the GI50 (OVCAR-4) was 19.3 µM (inactive) and the GI50 (SF-539) was 5.5 µM (inactive). For the same compound, the GI50 (HCC 2998) was 0.818 µM (active), the GI50 (UACC-62) was 13.2 µM (inactive) and the GI50 (M14) was 11.2 µM (inactive). For the same compound, the GI50 (Hs-578T) was 10 µM (inactive) and the GI50 (OVCAR-3) was 37.8 µM (inactive).
`Cc1nnc2n1N=C(c1ccc(-c3ccc([N+](=O)[O-])cc3)o1)CS2` was tested, and the GI50 (HOP-92) was > 100 µM (inactive), the GI50 (CAKI-1) was > 100 µM (inactive) and the GI50 (IGROV-1) was > 100 µM (inactive). The GI50 (U-251) was > 100 µM (inactive), the GI50 (TK-10) was > 100 µM (inactive) and the GI50 (SK-OV-3) was > 100 µM (inactive). The GI50 (Malme-3M) was > 100 µM (inactive), the GI50 (OVCAR-8) was > 100 µM (inactive) and the GI50 (HL-60) was > 100 µM (inactive). The GI50 (LXFL 529) was > 100 µM (inactive), the GI50 (A549) was > 100 µM (inactive) and the GI50 (DMS-273) was > 100 µM (inactive). The GI50 (DLD-1) was > 100 µM (inactive), the GI50 (KM-20L2) was > 100 µM (inactive) and the GI50 (NCI-H23) was 35.1 µM (inactive). For the same compound, the GI50 (LOX IMVI) was > 100 µM (inactive), the GI50 (SNB-78) was > 100 µM (inactive) and the GI50 (RPMI-8226) was > 100 µM (inactive). The GI50 (HOP-62) was > 100 µM (inactive), the GI50 (UACC-257) was > 100 µM (inactive) and the GI50 (M19-MEL) was > 100 µM (inactive). For the same compound, the GI50 (SR) was > 100 µM (inactive), the GI50 (NCI-H460) was > 100 µM (inactive) and the GI50 (K562) was > 100 µM (inactive). The GI50 (ACHN) was > 100 µM (inactive), the GI50 (HCT-116) was > 100 µM (inactive) and the GI50 (SNB-19) was > 100 µM (inactive). The GI50 (OVCAR-5) was > 100 µM (inactive), the GI50 (SW-620) was > 100 µM (inactive) and the GI50 (SK-MEL-2) was > 100 µM (inactive). The GI50 (786-0) was > 100 µM (inactive), the GI50 (SN12C) was > 100 µM (inactive) and the GI50 (MOLT-4) was > 100 µM (inactive). For the same compound, the GI50 (NCI-H226) was > 100 µM (inactive), the GI50 (COLO 205) was > 100 µM (inactive) and the GI50 (SNB-75) was > 100 µM (inactive). The GI50 (NCI-H522) was > 100 µM (inactive), the GI50 (SF-295) was > 100 µM (inactive) and the GI50 (UO-31) was > 100 µM (inactive). The GI50 (SF-268) was > 100 µM (inactive), the GI50 (SK-MEL-28) was > 100 µM (inactive) and the GI50 (KM12) was > 100 µM (inactive). For the same compound, the GI50 (HCT-15) was greater than 100 µM, the GI50 (OVCAR-4) was > 100 µM (inactive) and the GI50 (SF-539) was > 100 µM (inactive). For the same compound, the GI50 (HCC 2998) was > 100 µM (inactive), the GI50 (UACC-62) was > 100 µM (inactive) and the GI50 (M14) was > 100 µM (inactive). For the same compound, the GI50 (OVCAR-3) was > 100 µM (inactive).
